From ChEMBL document CHEMBL6109121, “Discovery of Novel Sulfonylurea NLRP3 Inflammasome Inhibitor for the Treatment of Multiple Inflammatory Diseases” (J Med Chem, 2025)
Calls of active or inactive are those of the source. No cut-off for these calls is given here.

Legend:
[1] = Cytotoxicity against male C57BL/6J mouse BMDM cells; assay type: functional
[2] = test system: BMDM; test: Inhibition of NLRP3 inflammasome activation at initiation phase in LPS/ATP-stimulated male C57BL/6J mouse BMDM cells assessed as inhibition of IL6 secretion […] for 4 hrs followed by compound administration for 30 mins and measured after 1 hrs of ATP addition by ELISA; assay type: cell-based; conditions: time 1.5 hrs
[3] = molecular target: Nlrp3/Pycard (Mus musculus) (UniProt Q8R4B8+Q9EPB4); test: Inhibition of NLRP3-ASC protein-protein interaction in LPS/ATP stimulated male C57BL/6J mouse BMDM cells by co-immunoprecipitation based Western blot analysis; assay type: cell-based
Nlrp3/Pycard (Mus musculus), sequence (Q8R4B8 whole entry, looked up): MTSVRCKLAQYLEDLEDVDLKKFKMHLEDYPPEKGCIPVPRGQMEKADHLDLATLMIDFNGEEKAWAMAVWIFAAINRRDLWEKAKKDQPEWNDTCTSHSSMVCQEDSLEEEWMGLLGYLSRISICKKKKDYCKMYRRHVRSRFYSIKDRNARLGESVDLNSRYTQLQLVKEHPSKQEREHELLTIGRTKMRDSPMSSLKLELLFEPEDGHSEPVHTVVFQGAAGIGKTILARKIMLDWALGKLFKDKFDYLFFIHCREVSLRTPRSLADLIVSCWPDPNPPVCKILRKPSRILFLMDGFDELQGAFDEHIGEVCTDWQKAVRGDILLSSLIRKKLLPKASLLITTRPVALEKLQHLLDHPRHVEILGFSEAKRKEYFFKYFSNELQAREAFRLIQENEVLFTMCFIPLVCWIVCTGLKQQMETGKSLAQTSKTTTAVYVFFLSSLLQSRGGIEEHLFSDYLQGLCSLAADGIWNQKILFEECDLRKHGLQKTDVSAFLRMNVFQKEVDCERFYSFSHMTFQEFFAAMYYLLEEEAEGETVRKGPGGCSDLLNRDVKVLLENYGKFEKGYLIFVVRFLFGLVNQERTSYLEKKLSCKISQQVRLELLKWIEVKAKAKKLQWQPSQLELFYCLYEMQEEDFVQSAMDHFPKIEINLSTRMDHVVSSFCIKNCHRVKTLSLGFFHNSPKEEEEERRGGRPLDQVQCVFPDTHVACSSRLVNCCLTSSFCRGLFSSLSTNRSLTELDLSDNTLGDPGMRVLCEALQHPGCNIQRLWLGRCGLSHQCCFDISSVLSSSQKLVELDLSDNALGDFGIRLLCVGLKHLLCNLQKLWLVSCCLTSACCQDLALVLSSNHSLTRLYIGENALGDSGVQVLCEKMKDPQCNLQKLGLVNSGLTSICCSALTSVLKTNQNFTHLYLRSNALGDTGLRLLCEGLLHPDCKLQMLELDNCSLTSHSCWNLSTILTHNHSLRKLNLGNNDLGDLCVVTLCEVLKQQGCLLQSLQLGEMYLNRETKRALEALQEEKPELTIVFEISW
Nlrp3/Pycard (Mus musculus), sequence (Q9EPB4 whole entry, looked up): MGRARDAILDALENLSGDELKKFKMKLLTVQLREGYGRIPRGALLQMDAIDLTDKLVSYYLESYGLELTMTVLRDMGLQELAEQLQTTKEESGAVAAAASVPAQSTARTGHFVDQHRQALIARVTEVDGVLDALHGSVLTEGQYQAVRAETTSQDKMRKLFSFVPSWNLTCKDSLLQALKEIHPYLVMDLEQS

[4] = Oral bioavailability in male ICR (CD-1) mouse at 20 mg/kg by LC-MS/MS analysis; assay type: ADME, organism-based; conditions: in vivo
[5] = molecular target: NACHT, LRR and PYD domains-containing protein 3 (Mus musculus) (UniProt Q8R4B8); test: In vivo inhibition of NLRP3 inflammasome activation in LPS/ATP-induced acute peritonitis male C57BL/6J mouse model assessed as reduction in IL-1beta level in serum preadministered orally with compound for 1 hrs followed by LPS addition for 2 hrs and measured 12 hrs post ATP administration by ELISA; assay type: functional, organism-based; conditions: dose 1-20 mg/kg, route po, time 13.0 hrs
NACHT, LRR and PYD domains-containing protein 3 (Mus musculus), sequence (Q8R4B8 whole entry, the tested form may be a part): as the sequence (Q8R4B8 whole entry, looked up) above

[6] = test system: Mus musculus; test: (§1) Antidiabetic activity in HFD-fed STZ-induced diabetic kidney disease male C57BL/6J mouse model assessed as reduction in urine albumin-to-creatinine ratio at 20 mg/kg fed with high fat diet for 4 weeks followed by STZ administration for 5 days and measured 6 weeks post compound administration via gavage; assay type: functional, organism-based
[7] = test system: Mus musculus; test: as §1, with “tubular basement membrane thickening in kidney” for “urine albumin-to-creatinine ratio”, “gavage by histological analysis” for “gavage”; assay type: functional, organism-based
[8] = Drug uptake in heart of male C57BL/6J mouse at 20 mg/kg, po administered as single dose and measured after 8 hrs by LC-MS/MS analysis; assay type: ADME, organism-based; conditions: in vivo
[9] = Drug uptake in lung of male C57BL/6J mouse at 20 mg/kg, po administered as single dose and measured after 8 hrs by LC-MS/MS analysis; assay type: ADME, organism-based; conditions: in vivo
[10] = Drug uptake in gastrointestinal tract of male C57BL/6J mouse at 20 mg/kg, po administered as single dose and measured after 8 hrs by LC-MS/MS analysis; assay type: ADME, organism-based; conditions: in vivo
[11] = test system: Mus musculus; test: (§2) Anti-colitis activity in DSS-induced acute ulcerative colitis male C57BL/6J mouse model assessed as decrease in disease activity index score at 0.2 to 5 mg/kg, po preadministered with DSS for 7 days followed by 3 days of drinking water and measured after 10 days of compound administration; assay type: functional, organism-based; conditions: dose 0.2-5 mg/kg, time 10.0 day
[12] = test system: Mus musculus; test: as §2, with “reduction” for “decrease”, “disruption of mucosal barrier in colon” for “disease activity index score”, “administration by H and E staining based analysis” for “administration”; assay type: functional, organism-based; conditions: dose 0.2-5 mg/kg, time 10.0 day
[13] = test system: Mus musculus; test: as §2, with “reduction” for “decrease”, “depletion of goblet cells in colon” for “disease activity index score”, “administration by H and E staining based analysis” for “administration”; assay type: functional, organism-based; conditions: dose 0.2-5 mg/kg, time 10.0 day
[14] = test system: Mus musculus; test: as §2, with “reduction” for “decrease”, “infiltration of inflammatory cells in colon” for “disease activity index score”, “administration by H and E staining based analysis” for “administration”; assay type: functional, organism-based; conditions: dose 0.2-5 mg/kg, time 10.0 day
[15] = molecular target: NACHT, LRR and PYD domains-containing protein 3 (Mus musculus) (UniProt Q8R4B8); test: In vivo inhibition of NLRP3 inflammasome activation in DSS-induced acute ulcerative colitis male C57BL/6J mouse model assessed as reduction in IL-1beta level in colon at 0.2 to 5 mg/kg, po preadministered with DSS for 7 days followed by 3 days of drinking water and measured after 10 days of compound administration by ELISA; assay type: functional, organism-based; conditions: dose 0.2-5 mg/kg, time 10.0 day

CN1CCC(N(C)S(=O)(=O)NC(=O)Nc2c3c(cc4c2CCC4)CCC3)CC1
CC50 [1]: > 100 µM | inhibition [2]: inactive | inhibition [3]: Active | bioavailability [4]: 99.6% | inhibition [5]: Dose-dependent-effect | Activity [6]: Active | Activity [7]: Active | Drug uptake [8]: Active | Drug uptake [9]: Active | Drug uptake [10]: Active | Activity [11]: Active | Activity [12]: Active | Activity [13]: Active | Activity [14]: Active | inhibition [15]: Active
